Measured values published in patent US5628328A, “Method for measuring muscle mass” (priority 1995, dated 1997).
Read-outs that look alike come from different tables or passages of the source.

What was measured:
[1] = parameters: species or system cattle; conditions: bovine, in vivo
Experimental: A minimal model using 4-5 measurements and one compartment rather than three was evaluated. In the minimal model the three pools of the 3-compartment model were combined to form one homogeneous pool of 3-methylhistidine, characterized by a de novo production into the body pool and one exit from the model. The kinetic data between 720 and 4320 min was used for the analysis; this time frame corresponds to apparent linear steady state portion of the decay curve. The limitation of the 1-compartment model is the lost ability to described the entire metabolism of 3-methylhistidine. Only the rate of proteolysis and a total pool size can be estimated. […] (Rathmacher, J. et al., "The use of compartmental models of 3-methylhistidine flux to evaluate skeletal muscle protein turnover in implanted steers," J. Anim. Sci. (1993) 71:135.) However, in cattle the minimal model estimates of 3-methylhistidine production were 30% higher, but the estimates of 3-methylhistidine production were highly correlated (r=0.93, P 0.0001).

[2] = rabbit; cited from earlier work
[3] = parameters: species or system cattle; conditions: bovine, in vivo; remark: listed apart in the source
From the text: For cattle, the same three-compartment model was used as described herein. With respect to sheep, the model differs from that shown in FIG. 1 in that de novo production of 3-methylhistidine is shown in compartment 2 and additionally, exit from compartment 3 occurs as well as from compartment 1 into urine. With respect to swine, again, de novo production of 3-methylhistidine is shown in compartment 2, and exit to urine is from compartment 3.
Urinary 3-methylhistidine may be used in cattle and humans as an index of muscle protein breakdown but is invalid for use in pigs and lambs. […] Previously, in validating urinary 3-methylhistidineas an index of muscle proteolysis, researchers have injected ^14 C-3-methylhistidine intravenously and recovered the tracer in urine but have never described its decay in plasma. In constructing the 3-compartment model, we kept in mind known physiology of 3-methylhistidine. It has been established that there are pools of 3-methylhistidine in plasma, in other extracellular fluid pools, within muscle and in other tissues. […] Based on comparison of fits, a 3-compartment model was the best model to describe the metabolism of 3-methylhistidine; however, 2- and 4-compartment models as well as other configurations were also evaluated. […]

[4] = Nishizawa et al.; cited from earlier work
[5] = parameters: species or system dogs; conditions: dog, in vivo
From the text: Urinary 3-methylhistidine may be used in cattle and humans as an index of muscle protein breakdown but is invalid for use in pigs and lambs. […] Previously, in validating urinary 3-methylhistidineas an index of muscle proteolysis, researchers have injected ^14 C-3-methylhistidine intravenously and recovered the tracer in urine but have never described its decay in plasma. In constructing the 3-compartment model, we kept in mind known physiology of 3-methylhistidine. It has been established that there are pools of 3-methylhistidine in plasma, in other extracellular fluid pools, within muscle and in other tissues. The primary fate of 3-methylhistidine in humans, cattle and dogs is into urine (model exit from compartment 1), but in sheep and pigs there is a balenine pool in muscle that accumulates over time (model exit from compartment 3). The kinetic data were initially fitted to three exponential terms, indicating the possibility of a three compartment model. […] Model code 10 of SAAM was used and the models were based on a set of linear differential equations having constant coefficients. Based on comparison of fits, a 3-compartment model was the best model to describe the metabolism of 3-methylhistidine; however, 2- and 4-compartment models as well as other configurations were also evaluated. […]

[6] = cited from earlier work
[7] = cited from earlier work; remark: listed apart in the source
[8] = parameters: species or system human; conditions: in vivo
Experimental: Each study was four days in duration. Starting at t=0 (8.00 hours), subjects were administered a bolus infusion of L-3-[methyl^2 H3 ]-histidine (D3 -3-methylhistidine) at 0.13 μmol/kg into the forearm vein of the dominant arm. The infusate was passed through a Millex-GS sterilizing filter (0.22 μm; Millipore Products Divisions, Bedford, Mass.) before the infusion. Blood samples were obtained from the superficial hand vein and from the deep forearm vein at 0, 1, 2, 5, 10, 15, 30, 45, 90, 150, 210, 270, 330, and 720 min. postinjection. During this time, the subjects were required to stay at the Clinical Research Center, although they were allowed to ambulate freely within their rooms. Free access to food and drink was allowed after the 330-min sample. After 720 min, the catheters were removed and the patients were allowed to go home. For the following three days, the subjects returned to the CRC each morning before eating for further blood sampling by percutaneous venous puncture at 1,440, 2,880, and 4,320 min postinjection. Urine was collected over 24 hour periods the day before and for three days after tracer infusion.
Blood was collected in heparinized syringes, transferred to tubes containing Na2 EDTA (15 mg/tube), and centrifuged. The plasma obtained was immediately placed on ice. An aliquot of the plasma was processed for determination of 3-methylhistidine concentration as well as the L-3-[methyl-^2 H3 ]-histidine:3-methylhistidine isotope enrichment. The remainder of the plasma was frozen at -70° C. […] Urinary 3-methylhistidine concentration and production were also measured (Rathmacher, J. A. et al., "Gas chromatographic-mass spectrometric analysis of stable isotopes of 3-methylhistidine in biological fluids: application to plasma kinetics in vivo," Biol. Mass Spectrom. (1992) 21:560-566). […]

Cn1cnc(C[C@H](N)C(=O)O)c1 [3-methylhistidine]
3-methylhistidine production, minimal model above 3-compartment model [1]: 30%
Urinary excretion [2]: quantitatively excreted in the urine
Model 3-methylhistidine production versus urinary production [3]: qualitatively similar
Contribution of skin and intestine to total body pool of 3-methylhistidine [4]: up to 10%
Model 3-methylhistidine production versus urinary production [5]: qualitatively similar
Urinary excretion ([6]; pigs, retained in muscle as balenine): not quantitatively excreted in urine
3-methylhistidine excreted into urine ([6]; swine, of 3-methylhistidine from muscle metabolism): less than 2%
3MH Production ([7]; pigs, n=20, from model): 7.2 µmol/kg/day
M1, compartment mass ([7]; pigs, n=20): 1110 nmol/kg
M2, compartment mass ([7]; pigs, n=20): 2857 nmol/kg
M3, compartment mass ([7]; pigs, n=20): 6151 nmol/kg
R03 mass transfer rate ([7]; pigs, n=20): 5.0 nmol/kg/min
R12 mass transfer rate ([7]; pigs, n=20): 247 nmol/kg/min
R21 mass transfer rate ([7]; pigs, n=20): 247 nmol/kg/min
R23 mass transfer rate ([7]; pigs, n=20): 32 nmol/kg/min
R32 mass transfer rate ([7]; pigs, n=20): 37 nmol/kg/min
Urinary excretion of total daily 3-methylhistidine produced ([7]; pigs): 1.5 %/d
L0,3 fractional transfer rate ([7]; swine, number 20): .0009 min⁻¹
L1,2 fractional transfer rate ([7]; swine, number 20): .09 min⁻¹
L2,1 fractional transfer rate ([7]; swine, number 20): .23 min⁻¹
L2,3 fractional transfer rate ([7]; swine, number 20): .006 min⁻¹
L3,2 fractional transfer rate ([7]; swine, number 20): .014 min⁻¹
Urinary 3MH loss ([7]; swine, number 20): 1 % of total
Model 3-methylhistidine production above urinary estimate [8]: 16%
Model 3-methylhistidine production versus urinary production [8]: qualitatively similar
Urinary 3-methylhistidine production versus model estimate [8]: lower than the model estimate
